Test results published in the NIST ThermoML archive (doi:10.1016/j.jct.2010.11.017).

Assay: wn = mass fraction of the nth substance listed
Conditions: 101 kPa, Liquid; for viscosity: Capillary tube (Ostwald / Ubbelohde) method; for speed of sound: Frequency=3 MHz, Linear variable-path acoustic interferometer; for mass density: Pycnometric method

O=C[C@H](O)[C@@H](O)[C@H](O)[C@H](O)CO [D-glucose] + O
Conditions | mass density [kg/m3] | speed of sound [m/s] | viscosity [mPa·s]
293.15 K, w1 = 0.05 | 1016.28 | – | 1.176
293.15 K, w1 = 0.1 | 1034.79 | 1521.4 | 1.357
293.15 K, w1 = 0.15 | 1053.29 | 1532.4 | 1.541
293.15 K, w1 = 0.2 | 1072.41 | 1543.2 | 1.877
298.15 K, w1 = 0.05 | 1014.69 | 1514.3 | 0.9767
298.15 K, w1 = 0.1 | 1033.15 | 1530.6 | 1.12
298.15 K, w1 = 0.15 | 1051.61 | 1542.5 | 1.316
298.15 K, w1 = 0.2 | 1070.31 | 1553.3 | 1.67
303.15 K, w1 = 0.05 | 1013.08 | 1525.1 | 0.8605
303.15 K, w1 = 0.1 | 1031.5 | 1540.3 | 0.9907
303.15 K, w1 = 0.15 | 1049.92 | 1551.5 | 1.147
303.15 K, w1 = 0.2 | 1068.17 | 1563.1 | 1.491
308.15 K, w1 = 0.05 | 1011.47 | 1535.7 | 0.7697
308.15 K, w1 = 0.1 | 1029.84 | 1550.2 | 0.8844
308.15 K, w1 = 0.15 | 1048.37 | 1560.5 | 1.018
308.15 K, w1 = 0.2 | 1065.97 | 1573.5 | 1.345
313.15 K, w1 = 0.05 | 1009.85 | 1545.6 | 0.6945
313.15 K, w1 = 0.1 | 1028.17 | 1559.9 | 0.7901
313.15 K, w1 = 0.15 | 1046.62 | 1569.6 | 0.8925
313.15 K, w1 = 0.2 | 1063.76 | 1582.2 | 1.21
318.15 K, w1 = 0.05 | – | 1554.5 | 0.6334
318.15 K, w1 = 0.1 | 1026.48 | 1568.4 | 0.7223
318.15 K, w1 = 0.15 | 1044.93 | 1577.2 | 0.8097
318.15 K, w1 = 0.2 | 1061.52 | 1591.2 | 1.112
